# Test results reported in US10342221B2, “Generation of an inducible pericyte-specific CRE mouse model” (University of Southern California, priority 2016, dated 2019).
# Like-named read-outs stand apart in the source and are kept apart here.
# Tests used:
# [1] = system: pericytes expressing Cre-dependent diphtheria toxin receptor; assay type: in vivo, mouse; settings: TAM-treated Pericyte-CreER; iDTR mice; DT 1 μg i.p. per day for 10 days; 3 days after DT; versus vehicle
# [2] = system: hippocampal function; assay: Behavioral tests: novel object location and contextual fear conditioning; assay type: in vivo, mouse
# Procedure: Novel object location test was performed as the Inventors have previously reported. Animals were placed in a […] and allowed to habituate to the testing area for 10 min. Animals were then placed back in their cages and 2 identical approximately 5×5 cm objects were placed in the top left and right corner of the testing area. Animals were allowed to explore the two objects in the testing area for 5 min before being returned to their cages. After an hour interval one of the objects was relocated and the animals were allowed to explore the testing area once again for 3 min. After each trial, the testing area and the objects were thoroughly cleaned with 70% ethanol solution. All the trials, including habituation, were recorded with a high resolution camera and the amount of time each animal spent exploring the objects was analyzed. Any animals that presented a preference for either of the two identical objects, before replacement with the novel location, were eliminated from the analysis. Both male and female animals were used in the study.
# Long-term memory formation paradigm in contextual fear conditioning was adapted from a previously described protocol with modifications. The experiment was performed using conditioning chamber made of plexiglas housed in a soundproof isolation cubicle and equipped with a stainless-steel grid floor connected to a solid-state shock scrambler. The scrambler was connected to an electronic constant-current shock source that was controlled via an interface connected to a computer running FreezeFrame software (Coulbourn Instruments, Allentown, Pa., USA). A digital camera was mounted on the steel ceiling and behavior was recorded. […] Hippocampus-dependent fear memory formation was evaluated by scoring freezing behavior (the absence of all movement except for respiration). Percentage of total freezing time was assessed using the automated FreezeFrame system with a threshold set at 10%. […]
# [3] = system: blood-brain barrier; assay: Blood-brain barrier integrity: extravascular IgG and fibrin deposits, ZO-1 tight junction length
# Procedure: (§1) Animals were sacrificed at 3 days post DT or vehicle treatment (FIG. 3A) or 15 days post DT or vehicle treatment (FIG. 4A) as indicated, and brains were collected and analyzed.
# (§2) Animals were anesthetized with an i.p. injection of 100 mg/kg of ketamine and 50 mg/kg of 10 xylazine, and transcardially perfused first with 15 ml saline, followed by 20 ml of 4% paraformaldehyde (PFA) in PBS. Brains were removed, and post-fixed overnight at 4° C. before brain sections were cut at 30 μm thickness. Sections were blocked with 5% normal donkey serum (Vector Laboratories)/0.1% Triton-X/0.01M PBS and incubated with primary antibody diluted in blocking solution overnight at 4° C. […] To visualize brain microvessels, sections were incubated with Dylight 488-conjugated L. esculentum Lectin as the Inventors have previously reported. […] Sections were imaged with a Zeiss LSM 510 confocal laser-scanning microscope using a series of high-resolution optical sections (1,024×1,024-pixel format) that were captured with a 25× water-immersion objective, with 1× zoom at 1-μm step intervals for Z-stacks. Laser settings for gain, digital offset and laser intensity were kept standardized between different treatments and experiments. Z-stack projections and pseudo-coloring were performed using ZEN software (Carl Zeiss Microimaging), and image post-analysis were performed using ImageJ software.
# For each image, ten microns maximum projection z-stacks were reconstructed and analyzed using ImageJ. The levels of extravascular blood-derived fibrin and IgG deposits indicating BBB breakdown were determined as previously described.
# For each image, ten microns maximum projection z-stacks were reconstructed and analyzed using ImageJ. The length of ZO-1-positive tight junctions occupying lectin-positive capillary profiles was determined using the NeuronJ plugin for ImageJ, expressed as the length of ZO-1 (mm) over the lectin-positive capillary area (mm^2) as the Inventors have previously reported. ZO-1 and lectin stainings were performed as described above. The length of ZO1-positive tight junctions was normalized to the total area of lectin-positive microvessels using the Image J Area measurement tool.
# [4] = system: cerebral blood flow (CBF) response; assay: Cerebral blood flow responses by laser-Doppler flowmetry
# Procedure: as §1
# Animals were initially anesthetized with 100 mg/kg of ketamine and 50 mg/kg of xylazine and were placed on a heating pad (37° C.). The cranium of the mouse was firmly secured in a stereotaxic frame. A high speed dental drill (tip FST 19007-05, Fine Science Tools Inc., Foster City, Calif.) was used to thin a square cranial window about 2×2 mm over the parietal cortex, and 45 degree forceps were used to remove the square piece of skull. Gelfoam (Pharmacia & Upjohn Company, Kalamazoo, Mass.) was applied immediately to control any cranial or dural bleeding. A sterile 5 mm glass cover slip was then placed on the dura mater and sealed with a 1:1 mixture of bone cement and cyanoacrylate based glue.
# CBF responses to hindlimb stimulation in anesthetized mice (˜1% isoflurane) were determined using laser-Doppler flowmetry as previously described. The tip of the laser-Doppler probe (Transonic Systems Inc., Ithaca, N.Y.) was stereotaxically placed 0.5 mm above the cranial window over the hindlimb region of the primary somatosensory cortical area. CBF was recorded following electrical stimulation of the hind-limb using a 60 s long stimulus (7 Hz, 2 ms pulse duration). The percentage increase in CBF due to stimulation was obtained by subtracting the baseline CBF from the stable maximum plateau value reached during stimulus, and averaged over three trials per mouse. For CBF response to drug application, the LDF probe was placed stereotaxically over the center of an open cranial window (center at AP=−0.94 mm, L=1.5 mm). Drugs (10 μM Acetylcholine, and 400 μM Adenosine, all from Sigma) were superfused individually over the window, and responses recorded, as the Inventors reported previously. Arterial blood pressure was monitored continuously during the experiment. pH and blood gases were monitored before and after CBF recordings.
# [5] = system: pericytes expressing Cre-dependent diphtheria toxin receptor
# Procedure: as §1, §2
# Tissue was incubated for 30 min in 20 μg/ml Proteinase K and the In Situ Cell Death Detection Kit (Roche) was used per the manufacturer's instructions. Sections were coverslipped as described above. For each image, ten microns maximum projection z-stacks were reconstructed and analyzed using ImageJ. […] In each animal 5 randomly selected fields from the cortex were analyzed in 3 nonadjacent sections (˜100 μm apart). Three animals per group were analyzed.
# The quantitative analysis of pericyte coverage and numbers was restricted to CD13-positive cells that were associated with brain capillaries defined as microvessels ≤6 μm in diameter, as previously described. The endothelial-specific Lycopersicon esculentum lectin was used to visualize endothelial vascular profiles, and CD13 coverage of brain capillaries was determined as CD13-positive area (percentage) occupying lectin-positive endothelial capillary profiles, as previously. For each image, ten microns maximum projection z-stacks were reconstructed and analyzed using ImageJ. Pericyte numbers were determined by counting the number of CD13-positive cell bodies on the abluminal side of the endothelial membrane (lectin) that co-localized with DAPI (4′,6-diamidino-2-phenylindole)-positive nuclei and tdTomato-positive cell bodies using the Image J Cell Counter plug-in, as the Inventors and others previously described. The number of pericytes was expressed per mm^2 of tissue.
# [6] = system: neurons; assay: NeuN-positive neuron numbers and SMI-312 neuritic density
# Procedure: as §1
# Animals were anesthetized with an i.p. injection of 100 mg/kg of ketamine and 50 mg/kg of 10 xylazine, and transcardially perfused first with 15 ml saline, followed by 20 ml of 4% paraformaldehyde (PFA) in PBS. Brains were removed, and post-fixed overnight at 4° C. before brain sections were cut at 30 μm thickness. Sections were blocked with 5% normal donkey serum (Vector Laboratories)/0.1% Triton-X/0.01M PBS and incubated with primary antibody diluted in blocking solution overnight at 4° C. […] Sections were imaged with a Zeiss LSM 510 confocal laser-scanning microscope using a series of high-resolution optical sections (1,024×1,024-pixel format) that were captured with a 25× water-immersion objective, with 1× zoom at 1-μm step intervals for Z-stacks. Laser settings for gain, digital offset and laser intensity were kept standardized between different treatments and experiments. Z-stack projections and pseudo-coloring were performed using ZEN software (Carl Zeiss Microimaging), and image post-analysis were performed using ImageJ software.
# For each image, ten microns maximum projection z-stacks were reconstructed and analyzed using ImageJ. NeuN-positive neurons were determined using the ImageJ Cell Counter analysis tool. In each animal, five randomly selected fields from the cortex and the hippocampus in three nonadjacent sections (˜100 μm apart) were analyzed. Six animals per group were analyzed.
# [7] = control iDTR animals treated with TAM and DT
# [8] = TAM-treated pericyte-CreER, iDTR mice, 3 days after DT compared to vehicle
# [9] = cortex, TAM-treated pericyte-CreER, iDTR mice, 3 days after DT compared to vehicle
# [10] = somatosensory cortex and hippocampus, respectively, 15 days after DT compared to vehicle
substance,measurement,setting,value
diphtheria toxin [DT],loss in DTR protein levels in brain capillaries,[1],90%
same,loss of PDGFRβ protein in brain capillaries,[1],60%
same,novel object location and fear conditioning,"[2]; TAM-treated pericyte-CreER, iDTR mice, 15 days after DT treatment",significant behavior deficits
same,novel object location and fear conditioning,"[2]; TAM-treated pericyte-CreER, iDTR mice, before treatment (0 d), 6 d of DT treatment, 3 days after last DT injection, versus vehicle",did not show deficits
same,novel object location and fear conditioning,[2]; [7],no differences
same,reduction in the ZO-1 length on brain capillaries,[3]; [8],50%
same,BBB changes,[3]; control iDTR animals that received TAM and DT,did not show any BBB changes
same,increase in fibrin deposits,[3]; [9],> 4 fold
same,increase in plasma-derived immunoglobulin G deposits,[3]; [9],> 4 fold
same,ZO-1 expression,[3]; iDTR control animals treated with TAM and DT,No changes
same,CBF response in the presence of acetylcholine,"[4]; 10 μM acetylcholine superfused, 3 days after DT treatment or vehicle",no difference in CBF response
same,CBF response in the presence of adenosine,"[4]; 400 μM adenosine superfused, 3 days after DT treatment or vehicle",no difference in CBF response
same,reduction in CBF response to hind limb electrical stimulus,[4]; [8],50%
same,change in CBF responses,[4]; control iDTR animals that received TAM and DT treatment,No significant change
same,"number of astrocytes, astrocytic endfeet coverage on microvessels or microglia density",[5]; 3 days after DT treatment,no changes were observed
same,pericyte coverage,"[5]; TAM-treated control iDTR mice, same DT injection protocol",no changes in pericyte coverage
same,loss of tdTomato-positive pericytes in brain capillaries,"[5]; cortex and hippocampus, 3 days after DT treatment compared to vehicle",95%
same,pericyte cell death by TUNEL staining of perivascular tdTomato-positive nuclei,"[5]; cortex, 3 days after DT compared to vehicle",contained fragmented DNA
same,reduction in pericyte capillary coverage (CD13 on lectin-positive profiles),[5]; [9],50%
same,reduction in pericyte density (CD13-positive pericyte cell bodies),[5]; [9],60%
same,reduction in pericyte density (CD13-positive pericyte cell bodies),"[5]; hippocampus, TAM-treated pericyte-CreER, iDTR mice, 3 days after DT compared to vehicle",58%
same,neuronal or neuritic changes,[6]; before DT treatment and 3 days after last DT injection compared to vehicle,No significant neuronal or neuritic changes
same,neuron counts and neuritic density,[6]; [7],normal neuron counts and neuritic density
same,loss of NeuN-positive neuronal cell bodies,[6]; [10],20-25%
same,reduction in SMI-312-positive neuritic density,[6]; [10],30-40%
